Drawing on US11325938B2, “CD73 inhibitors” (ORIC Pharmaceuticals, Inc., priority 2018, dated 2022), this text covers IC50 for 23 compounds.

Sequence of CD73 (P21589 27-574): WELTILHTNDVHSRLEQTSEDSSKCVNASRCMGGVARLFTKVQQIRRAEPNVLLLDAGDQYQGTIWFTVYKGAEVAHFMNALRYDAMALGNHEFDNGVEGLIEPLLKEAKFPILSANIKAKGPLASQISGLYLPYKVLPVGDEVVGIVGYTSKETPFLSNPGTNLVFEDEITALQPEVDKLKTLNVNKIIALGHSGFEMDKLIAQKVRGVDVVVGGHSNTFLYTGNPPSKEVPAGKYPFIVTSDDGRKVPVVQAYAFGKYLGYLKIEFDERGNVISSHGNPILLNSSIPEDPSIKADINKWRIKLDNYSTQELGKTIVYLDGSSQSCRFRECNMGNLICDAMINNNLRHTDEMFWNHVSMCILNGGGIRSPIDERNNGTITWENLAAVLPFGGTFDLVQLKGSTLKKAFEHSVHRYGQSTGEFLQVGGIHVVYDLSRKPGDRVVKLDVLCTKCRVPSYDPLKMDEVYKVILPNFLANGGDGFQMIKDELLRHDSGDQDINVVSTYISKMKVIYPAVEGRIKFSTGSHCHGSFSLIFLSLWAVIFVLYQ

The experiment has as its target CD73 (Homo sapiens (Human), UniProt P21589). The experiment is described as follows: Biochemical assay: inhibition of CD73 activity (AMP hydrolysis, Malachite Green readout). Conditions: CD73 0.3208 nM, AMP 15 μM, 25 mM Tris-HCl pH 7.4, RT, absorbance 620 nm. Put shortly:
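Human CD73 (320 pM final) preincubated 15 min at RT with compounds (10-point ½-log titration from 100 μM, duplicates) in 25 mM Tris-HCl pH 7.4, 5 mM MgCl2, 0.01% Brij-35, 0.01% BSA. 15 μM AMP added, 10 min at RT; released phosphate read by Malachite Green absorbance; IC50 determined.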
In the case of `C[C@@H](OC[C@H]1O[C@@H](n2ncc3c(NC4CCCC4)nc(Cl)nc32)[C@H](O)[C@@H]1O)P(=O)(O)O` [Example 32, ((S)-1-(((2R,3S,4R,5R)-5-(6-chloro-4-(cyclopentylamino)-1H-pyrazolo[3,4-d]pyrimidin-1-yl)-3,4-dihydroxytetrahydrofuran-2-yl)methoxy)ehtyl)phosphonic acid], the IC50 (usually the point on the concentration scale where inhibition reaches its midpoint) was no more than 100 nM. `C[C@H](OC[C@H]1O[C@@H](n2ncc3c(NC4CCCC4)nc(Cl)nc32)[C@H](O)[C@@H]1O)P(=O)(O)O` [Example 33, ((R)-1-(((2R,3S,4R,5R)-5-(6-chloro-4-(cyclopentylamino)-1H-pyrazolo[3,4-d]pyrimidin-1-yl)-3,4-dihydroxytetrahydrofuran-2-yl)methoxy)ethyl)phosphonic acid] yielded an IC50 of no more than 100 nM. For `O=P(O)(O)C(CCO)S(=O)(=O)C[C@H]1O[C@@H](n2ncc3c(NC4CCCC4)nc(Cl)nc32)[C@H](O)[C@@H]1O` (stereo partly drawn) [Example 34, (1-((((2S,3S,4R,5R)-5-(6-chloro-4-(cyclopentylamino)-1H-pyrazolo[3,4-d]pyrimidin-1-yl)-3,4-dihydroxytetrahydrofuran-2-yl)methyl)sulfonyl)-3-hydroxypropyl)phosphonic acid], the IC50 lay in the range of 100 to 1000 nM. `O=P(O)(O)C(OC[C@H]1O[C@@H](n2ncc3c(NC4CCCC4)nc(Cl)nc32)[C@H](O)[C@@H]1O)c1nnn[nH]1` (stereo partly drawn) [Example 35, ((((2R,3S,4R,5R)-5-(6-chloro-4-(cyclopentylamino)-1H-pyrazolo[3,4-d]pyrimidin-1-yl)-3,4-dihydroxytetrahydrofuran-2-yl)methoxy)(1H-tetrazol-5-yl)methyl)phosphonic acid] registered a half-maximal inhibitory concentration (IC50) of no more than 100 nM. With `O=P(O)(O)C(CO)(CCO)OC[C@H]1O[C@@H](n2ncc3c(NC4CCCC4)nc(Cl)nc32)[C@H](O)[C@@H]1O` (stereo partly drawn) [Example 36, (2-(((2R,3S,4R,5R)-5-(6-chloro-4-(cyclopentylamino)-1H-pyrazolo[3,4-d]pyrimidin-1-yl)-3,4-dihydroxytetrahydrofuran-2-yl)methoxy)-1,4-dihydroxybutan-2-yl)phosphonic acid], the concentration for half-maximal inhibition (IC50) is no more than 100 nM. Compound `O=P(O)(O)C(CO)(CCO)OC[C@H]1O[C@@H](n2ncc3c(NC4CCCC4)nc(Br)nc32)[C@H](O)[C@@H]1O` (stereo partly drawn) [Example 37, (2-(((2R,3S,4R,5R)-5-(6-bromo-4-(cyclopentylamino)-1H-pyrazolo[3,4-d]pyrimidin-1-yl)-3,4-dihydroxytetrahydrofuran-2-yl)methoxy)-1,4-dihydrobutan-2-yl)phosphonic acid] showed an IC50 of no more than 100 nM. The compound `CS(=O)(=O)C(OC[C@H]1O[C@@H](n2ncc3c(NC4CCCC4)nc(Cl)nc32)[C@H](O)[C@@H]1O)P(=O)(O)O` (stereo partly drawn) [Example 38, ((((2R,3S,4R,5R)-5-(6-chloro-4-(cyclopentylamino)-1H-pyrazolo[3,4-d]pyrimidin-1-yl)-3,4-dihydroxytetrahydrofuran-2-yl)methoxy)(methylsulfonyl)methyl)phosphonic acid] showed a 50% inhibitory concentration (IC50) of 100 to 1000 nM. In the case of `O=P(O)(O)C(CO)OC[C@H]1O[C@@H](n2ncc3c(N[C@H]4CCc5ccccc54)nc(Cl)nc32)[C@H](O)[C@@H]1O` (stereo partly drawn) [Example 39, (1-(((2R,3S,4R,5R)-5-(6-chloro-4-(((S)-2,3-dihydro-1H-inden-1-yl)amino)-1H-pyrazolo[3,4-d]pyrimidin-1-yl)-3,4-dihydroxytetrahydrofuran-2-yl)methoxy)-2-hydroxyethyl)phosphonic acid], the IC50 was no more than 100 nM.

In turn, `O=P(O)(O)C(CO)OC[C@@H]1C[C@@H](O)[C@H](n2ncc3c(NC4CCCC4)nc(Cl)nc32)O1` (stereo partly drawn) [Example 40, (1-(((2S,4R,5R)-5-(6-chloro-4-(cyclopentylamino)-1H-pyrazolo[3,4-d]pyrimidin-1-yl)-4-hydroxytetrahydrofuran-2-yl)methoxy)-2-hydroxyethyl)phosphonic acid] yielded a half-maximal inhibitory concentration (IC50) of no more than 100 nM.

With `O=C(c1ccccc1)C(OC[C@H]1O[C@@H](n2ncc3c(NC4CCCC4)nc(Cl)nc32)[C@H](O)[C@@H]1O)P(=O)(O)O` (stereo partly drawn) [Example 41, (1-(((2R,3S,4R,5R)-5-(6-chloro-4-(cyclopentylamino)-1H-pyrazolo[3,4-d]pyrimidin-1-yl)-3,4-dihydroxytetrahydrofuran-2-yl)methoxy)-2-oxo-2-phenylethyl)phosphonic acid], the IC50 was in the range of 100 to 1000 nM. `CC(O)C(OC[C@H]1O[C@@H](n2ncc3c(NC4CCCC4)nc(Cl)nc32)[C@H](O)[C@@H]1O)P(=O)(O)O` (stereo partly drawn) [Example 42, (1-(((2R,3S,4R,5R)-5-(6-chloro-4-(cyclopentylamino)-1H-pyrazolo[3,4-d]pyrimidin-1-yl)-3,4-dihydroxytetrahydrofuran-2-yl)methoxy)-2-hydroxypropyl)phosphonic acid] returned an IC50 of no more than 100 nM. The result for `O=P(O)(O)CP(=O)(O)OC[C@H]1O[C@@H](n2nnc3c(NC4CCCC4)cc(Cl)nc32)[C@H](O)[C@@H]1O` [Example 53, (((((2R,3S,4R,5R)-5-(5-chloro-7-(cyclopentylamino)-3H-[1,2,3]triazolo[4,5-b]pyridin-3-yl)-3,4-dihydroxytetrahydrofuran-2-yl)methoxy)(hydroxy)phosphoryl)methyl)phosphonic acid] reads no more than 100 nM; that for `COP(=O)(CP(=O)(O)O)OC[C@H]1O[C@@H](n2nnc3c(NC4CCCC4)cc(Cl)nc32)[C@H](O)[C@@H]1O` (stereo partly drawn) [Example 54, (((((2R,3S,4R,5R)-5-(5-chloro-7-(cyclopentylamino)-3H-[1,2,3]triazolo[4,5-b]pyridin-3-yl)-3,4-dihydroxytetrahydrofuran-2-yl)methoxy)(methoxy)phosphoryl)methyl)phosphonic acid], no more than 100 nM; that for `CSCC(C)(OC[C@H]1O[C@@H](n2ncc3c(NC4CCCC4)nc(Cl)nc32)[C@H](O)[C@@H]1O)P(=O)(O)O` (stereo partly drawn) [Example 55, (2-(((2R,3S,4R,5R)-5-(6-Chloro-4-(cyclopentylamino)-1H-pyrazolo[3,4-d]pyrimidin-1-yl)-3,4-dihydroxytetrahydrofuran-2-yl)methoxy)-1-(methylthio)propan-2-yl)phosphonic acid], no more than 100 nM. `CC(CCO)(OC[C@H]1O[C@@H](n2ncc3c(NC4CCCC4)nc(Cl)nc32)[C@H](O)[C@@H]1O)P(=O)(O)O` (stereo partly drawn) [Example 56, (2-(((2R,3S,4R,5R)-5-(6-Chloro-4-(cyclopentylamino)-1H-pyrazolo[3,4-d]pyrimidin-1-yl)-3,4-dihydroxytetrahydrofuran-2-yl)methoxy)-4-hydroxybutan-2-yl)phosphonic acid] registered an IC50 of no more than 100 nM. Compound `O=P(O)(O)C(CO)OC[C@H]1O[C@@H](n2ncc3c(NC4CCCC4)cc(Cl)nc32)[C@H](O)[C@@H]1O` (stereo partly drawn) [Example 57, (1-(((2R,3S,4R,5R)-5-(6-Chloro-4-(cyclopentylamino)-1H-pyrazolo[3,4-b]pyridin-1-yl)-3,4-dihydroxytetrahydrofuran-2-yl)methoxy)-2-hydroxyethyl)phosphonic acid] yielded an IC50 of no more than 100 nM. For the compound `O=P(O)(O)C(CO)OC[C@H]1O[C@@H](n2nnc3c(NC4CCCC4)nc(Cl)nc32)[C@H](O)[C@@H]1O` (stereo partly drawn) [Example 58, (1-(((2R,3S,4R,5R)-5-(5-Chloro-7-(cyclopentylamino)-3H-[1,2,3]triazolo[4,5-d]pyrimidin-3-yl)-3,4-dihydroxytetrahydrofuran-2-yl)methoxy)-2-hydroxyethyl)phosphonic acid], the half-maximal inhibitory concentration (IC50) was no more than 100 nM. `Nc1nc(Cl)nc2c1cnn2[C@@H]1O[C@H](COC(CO)P(=O)(O)O)[C@@H](O)[C@H]1O` (stereo partly drawn) [Example 59, (1-(((2R,3S,4R,5R)-5-(4-amino-6-chloro-1H-pyrazolo[3,4-d]pyrimidin-1-yl)-3,4-dihydroxytetrahydrofuran-2-yl)methoxy)-2-hydroxyethyl)phosphonic acid] had an IC50 of 100 to 1000 nM. Take `O=P(O)(O)C(CO)OC[C@H]1O[C@@H](n2nnc3c(NC4CCCC4)cc(Cl)nc32)[C@H](O)[C@@H]1O` (stereo partly drawn) [Example 60, (1-(((2R,3S,4R,5R)-5-(5-chloro-7-(cyclopentylamino)-3H-[1,2,3]triazolo[4,5-b]pyridin-3-yl)-3,4-dihydroxytetrahydrofuran-2-yl)methoxy)-2-hydroxyethyl)phosphonic acid]: the half-inhibitory concentration (IC50) is no more than 100 nM. Turning to `CC(CO)(OC[C@H]1O[C@@H](n2ncc3c(N[C@@H]4CCc5ccccc54)nc(Cl)nc32)[C@H](O)[C@@H]1O)P(=O)(O)O` (stereo partly drawn) [Example 61, (2-(((2R,3S,4R,5R)-5-(6-chloro-4-(((R)-2,3-dihydro-1H-inden-1-yl)amino)-1H-pyrazolo[3,4-d]pyrimidin-1-yl)-3,4-dihydroxytetrahydrofuran-2-yl)methoxy)-1-hydroxypropan-2-yl)phosphonic acid], the concentration for half-maximal inhibition (IC50) is no more than 100 nM. The result for `C[C@](CO)(OC[C@H]1O[C@@H](n2ncc3c(NC4CCCC4)nc(Cl)nc32)[C@H](O)[C@@H]1O)P(=O)(O)O` [Example 62, ((S)-2-(((2R,3S,4R,5R)-5-(6-chloro-4-(cyclopentylamino)-1H-pyrazolo[3,4-d]pyrimidin-1-yl)-3,4-dihydroxytetrahydrofuran-2-yl)methoxy)-1-hydroxypropan-2-yl)phosphonic acid] reads no more than 100 nM; that for `C[C@@](CO)(OC[C@H]1O[C@@H](n2ncc3c(NC4CCCC4)nc(Cl)nc32)[C@H](O)[C@@H]1O)P(=O)(O)O` [Example 63, ((R)-2-(((2R,3S,4R,5R)-5-(6-chloro-4-(cyclopentylamino)-1H-pyrazolo[3,4-d]pyrimidin-1-yl)-3,4-dihydroxytetrahydrofuran-2-yl)methoxy)-1-hydroxypropan-2-yl)phosphonic acid], no more than 100 nM. With `COC[C@@H](OC[C@H]1O[C@@H](n2ncc3c(NC4CCCC4)nc(Cl)nc32)[C@H](O)[C@@H]1O)P(=O)(O)O` [Example 64, ((S)-1-(((2R,3S,4R,5R)-5-(6-chloro-4-(cyclopentylamino)-1H-pyrazolo[3,4-d]pyrimidin-1-yl)-3,4-dihydroxytetrahydrofuran-2-yl)methoxy)-2-methoxyethyl)phosphonic acid], the 50% inhibitory concentration (IC50) is no more than 100 nM.
